# Experiments:
# [1] = test system: human peripheral blood-derived platelets (ADAM17-mediated GPIbα shedding); test: Function-maintaining effect on human peripheral blood-derived washed platelets with CCCP (flow cytometry CD41/CD42b); assay type: cell-based; conditions: Test Example 13; 100 μM CCCP, 37° C., 24 hours; S-45457 50 μM, S-45282 5 μM, p38 inhibitors 40 μM
# Procedure: Specifically, according to <Protocol 2> illustrated in FIG. 6, first, ACD was added to human peripheral blood obtained by collecting blood at a ratio of 1:10, and centrifuged at 900 rpm for 10 minutes without a break. The supernatant obtained by the centrifugation was further centrifuged at 1500 rpm for 10 minutes without a break, and then the supernatant was removed. The precipitate thus obtained was suspended in a Tyrode-HEPES buffer (not containing calcium). The number of platelets in the suspension was counted, and the suspension (Washed Platelet) was adjusted to contain 5×10^7 to 1×10^8 of platelets/200 μL of the Tyrode-HEPES buffer (not containing calcium). […] After incubation at 37° C. for 24 hours, the numbers of CD41(+)CD42b(+) and CD41(+)CD42b(−) were counted by flow cytometry.
# After incubation at 37° C. for 24 hours, a dot plot analysis on CD41(+) and CD42b(+) was conducted by flow cytometry.
# After incubation at 37° C. for 24 hours and flow cytometry analysis, a percentage of CD41(+)CD42b(+) in the platelets was calculated.
# After incubation at 37° C. for 24 hours, a total number of platelets and the number of CD42b(+) were counted by flow cytometry, and percentage of CD42b(+) in the platelets was calculated.
# After incubation at 37° C. for 24 hours, by flow cytometry, a dot plot analysis on CD41(+) and CD42b(+) was conducted.
# [2] = target: T1, Matrix metalloproteinase 17 (MMP-17) (Homo sapiens, UniProt Q9ULZ9); test: Enzyme inhibition experiment, MMP-17; assay type: biochemical; conditions: 3163 substrate, 25° C., 5 hours
# T1 construct: purchased Calbiochem 475940
# T1 sequence (Q9ULZ9 126-298 limits assumed): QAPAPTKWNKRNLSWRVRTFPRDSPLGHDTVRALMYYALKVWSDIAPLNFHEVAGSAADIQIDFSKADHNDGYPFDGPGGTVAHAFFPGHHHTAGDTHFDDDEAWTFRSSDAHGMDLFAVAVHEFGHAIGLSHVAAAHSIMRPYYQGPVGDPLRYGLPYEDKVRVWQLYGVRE
# Procedure: Matrix metalloproteinase 17 (MMP-17) (manufactured by Calbiochem, product number: 475940)
# 3168 substrate (MOCAc-Arg-Pro-Lys-Pro-Val-Glu-Nva-Trp-Arg-Lys(Dnp)-NH2, manufactured by Peptide Institute, Inc.): excitation wavelength at 320 nm, emission wavelength at 405 nm, and 3163 substrate (MOCAc-Pro-Leu-Gly-Leu-A2pr(Dnp)-Ala-Arg-NH2, manufactured by Peptide Institute, Inc.): excitation wavelength at 320 nm, emission wavelength at 405 nm.
# (§1) The enzyme reaction was carried out using the enzymes and substrates. Specifically, if necessary, the enzyme was activated in advance with APMA (final concentration 1 mmol/L, p-aminophenylmercuric acetate, manufactured by Sigma-Aldrich Co., A9563) according to information from the manufacturer. Then, in a 96-well plate for fluorescence measurement, 90 μL of an enzyme solution prepared with Assay Buffer A (50 mmol/L Tris-HCl buffer (pH 7.5) containing 200 mmol/L sodium chloride, 5 mmol/L calcium chloride, 10 μmol/L zinc sulfate, and 2 mg/mL bovine serum albumin) was mixed with 90 μL of the substrate adjusted to be 20 μmol/L with Assay Buffer B (50 mmol/L Tris-HCl buffer (pH 7.5) containing 200 mmol/L sodium chloride, 5 mmol/L calcium chloride, 10 μmol/L zinc sulfate, and 0.05% PLURONIC F-68), and incubated for reaction at 25° C. or 37° C. for several hours. Moreover, the fluorescence intensities before and after the reaction were measured using a fluorometer to determine the enzyme activity. An inhibition rate was obtained based on the enzyme activities in the presence and absence of the test substances, and the 50% inhibitory concentration (IC50) was calculated.
# [3] = target: T2, A disintegrin and metalloproteinase 10 (ADAM10) (Homo sapiens, UniProt O14672); test: Enzyme inhibition experiment, ADAM10; assay type: biochemical; conditions: degree somewhat low in comparison with ADAM17
# T2 construct: purchased Funakoshi Co., Ltd. 936-AD-020
# T2 sequence (O14672 214-672 limits assumed): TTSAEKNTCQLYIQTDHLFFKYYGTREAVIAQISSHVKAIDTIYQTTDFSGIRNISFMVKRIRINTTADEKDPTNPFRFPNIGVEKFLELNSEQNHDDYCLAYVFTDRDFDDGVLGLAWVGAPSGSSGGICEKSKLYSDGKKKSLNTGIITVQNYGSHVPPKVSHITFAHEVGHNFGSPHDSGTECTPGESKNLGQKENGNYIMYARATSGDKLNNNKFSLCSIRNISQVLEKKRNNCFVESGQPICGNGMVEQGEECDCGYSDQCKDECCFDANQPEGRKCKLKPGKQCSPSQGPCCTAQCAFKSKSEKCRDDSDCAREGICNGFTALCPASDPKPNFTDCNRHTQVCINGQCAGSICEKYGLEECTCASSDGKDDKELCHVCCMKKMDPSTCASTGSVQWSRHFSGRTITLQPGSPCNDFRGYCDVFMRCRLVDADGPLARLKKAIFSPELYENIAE
# Procedure: A disintegrin and metalloproteinase 10 (ADAM10) (manufactured by Funakoshi Co., Ltd., product code: 936-AD-020) and
# TACE substrate (the same as one used in Test Example 3): excitation wavelength at 355 nm, emission wavelength at 460 nm
# as §1
# [4] = test system: human peripheral blood PRP (platelet-rich plasma); test: Function-maintaining effect on human peripheral blood PRP (flow cytometry CD41/CD42b); assay type: cell-based; conditions: Test Example 12; 37° C., 24 hours or 72 hours; S-45457 50 μM, S-45282 5 μM, p38 inhibitors 40 μM
# [5] = test system: ES cell-derived platelets (ADAM17-mediated GPIbα shedding); test: Function-maintaining effect on ES cell-derived platelets in culture system (flow cytometry CD41/CD42b, platelet count)
# Procedure: As human ES cells (hES cells), a KhES cell line (KhES-3) established by and provided from Institute for Frontier Medical Sciences, Kyoto University was used.
# The human ES cells or the human iPS cells were seeded on the feeder cells such that the cell count was 5×10^4 to 1×10^5/10-cm dish. The cells were cultured in Iscove's Modified Dulbecco's Medium (IMDM, manufactured by Invitrogen Corp/GIBCO) supplemented with 15% FBS (product name: CELLect™ GOLD, manufactured by ICN Biomedicals Inc.), 2 mM L-glut amine (manufactured by Invitrogen Corp.), ITS supplement (10 μg/ml insulin, 5.5 mg/ml human transferrin, 5 ng/ml sodium selenite) (manufactured by Sigma-Aldrich Co.), 50 μg/ml ascorbic acid (Sigma-Aldrich Co.), 0.45 mM α-monothioglycerol (MTG, manufactured by Sigma-Aldrich Co.), and 20 ng/ml vascular endothelial growth factor (VEGF, manufactured by R&D Systems, Inc.). Further, this culturing was carried out at 37° C. in 5% CO2 and 21% O2 (atmospheric oxygen) using a CO2 incubator (product name: HERA CELL 150i, manufactured by Thermo Fisher Scientific K. K.). Then, the medium was replaced every 3 days, and the culturing was continued under the conditions until Day 15 when a large number of sac structures (sac-like structures) containing hematopoietic progenitor cells therein were observed.
# Next, after detached from the dish, the sac structures were disrupted and suspended in a 3% FBS-containing phosphate buffer solution (PBS). Then, the suspension was passed through a 40-μm cell strainer (manufactured by BD). The solution thus passed through was centrifuged at 440×g for 10 minutes to collect hematopoietic progenitor cells, and the cells was counted. The hematopoietic progenitor cells were seeded on 10T1/2 cells newly prepared in a 6-well plate (6×10^5 cells/plate) exposed to 50-Gy radiation such that the number of the hematopoietic progenitor cells was 2 to 3×10^4/well. The hematopoietic progenitor cells were further cultured for 8 days in IMDM (manufactured by Invitrogen Corp/GIBCO) supplemented with 15% FBS (product name: CELLect™ GOLD, manufactured by ICN Biomedicals Inc.), 2 mM L-glutamine (manufactured by Invitrogen Corp.), ITS supplement (10 μg/ml insulin, 5.5 mg/ml transferrin, 5 ng/ml sodium selenite) (manufactured by Sigma-Aldrich Co.), 50 μg/ml ascorbic acid (manufactured by Sigma-Aldrich Co.), 0.45 mM MTG (manufactured by Sigma-Aldrich Co.), 100 ng/ml human thrombopoietin (human TPO, manufactured by PeproTech, Inc.), 50 ng/ml human stem cell factor (SCF, manufactured by PeproTech, Inc.), and 25 U/ml heparin. Thereby, megakaryocytes/platelets were induced.
# Subsequently, the induced megakaryocytes/platelets were collected with an anticoagulant solution (Acid Citrate Dextrose, ACD), followed by centrifugation at 900 rpm for 10 minutes without a break. The supernatant obtained by the centrifugation was further centrifuged at 1500 rpm for 10 minutes without a break to remove the supernatant. Thereafter, the numbers of megakaryocytes and platelets in the precipitate thus obtained were analyzed by flow cytometry using antibodies for staining.
# Note that, in the flow cytometry, FACS Aria manufactured by Becton, Dickinson and Company was used. As the antibodies used to stain the megakaryocytes and the platelets, used were a Phycoerythrin (PE)-modified anti-human CD42a (GPIX) antibody, a PE-modified anti-human CD42b (GPIbα) antibody, and an allophycocyanin (APC)-labelled anti-CD41a (integrin αIIbbeta3 complex, HIP8 clone) antibody (manufactured by BD Bioscience). Additionally, in order to accurately measure the absolute numbers of the megakaryocytes and the platelets, the cells were stained with these antibodies, and the analysis was conducted by flow cytometry using TruCount beads (manufactured by BD Bioscience), also.
# [6] = target: T3, Matrix metalloproteinase 2 (MMP-2) (Homo sapiens, UniProt P08253); test: Enzyme inhibition experiment, MMP-2; assay type: biochemical; conditions: 3163 substrate, 37° C., 5 hours
# T3 construct: purchased Calbiochem 444213
# T3 sequence (P08253 110-660): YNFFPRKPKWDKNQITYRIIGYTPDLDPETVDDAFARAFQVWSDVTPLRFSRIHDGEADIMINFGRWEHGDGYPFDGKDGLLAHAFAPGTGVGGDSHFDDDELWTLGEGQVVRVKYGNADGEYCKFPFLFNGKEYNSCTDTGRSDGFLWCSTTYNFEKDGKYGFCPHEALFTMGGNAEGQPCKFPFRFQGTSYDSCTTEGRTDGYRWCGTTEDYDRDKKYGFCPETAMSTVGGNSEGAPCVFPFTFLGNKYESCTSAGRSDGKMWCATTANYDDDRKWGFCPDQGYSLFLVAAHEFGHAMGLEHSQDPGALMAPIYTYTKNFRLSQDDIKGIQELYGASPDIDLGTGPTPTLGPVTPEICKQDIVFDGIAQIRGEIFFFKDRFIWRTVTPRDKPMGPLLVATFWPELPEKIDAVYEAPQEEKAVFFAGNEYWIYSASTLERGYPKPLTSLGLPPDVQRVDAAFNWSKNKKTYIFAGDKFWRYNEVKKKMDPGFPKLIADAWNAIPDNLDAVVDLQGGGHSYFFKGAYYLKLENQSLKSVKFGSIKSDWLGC
# Procedure: as §1, with “activity.” for “activity. An inhibition rate was obtained based on the enzyme activities in the presence and absence of the test substances, and the 50% inhibitory concentration (IC50) was calculated.”
Structure (SMILES),function-maintaining effect on human peripheral blood-derived platelets (dot plot CD41/CD42b) [1],IC50 [2] [nM],suppression of ADAM10 (in words) [3],function-maintaining effect on human peripheral blood PRP [4],"inhibitory effect on GPIbα shedding compared with 50 μM GM6001 ([5]; Test Example 5, S-45282 at 5 μM)","inhibition of ADAM17-mediated GPIbα shedding (CD42b(+) percentage) ([5]; Test Example 5, added for 2 days or 8 days, GM6001 50 μM, S-45282 5 μM or 50 μM)","number of platelets obtained ([5]; Test Example 5, added for 2 days, 50 μM GM6001, 5 μM S-45282)",IC50 [6] [nM],"inhibition of ADAM17-mediated GPIbα shedding ([5]; Test Example 6, 8 days, S-45457 5 μM or 50 μM, GM6001 50 μM)","toxicity to cells (total number of platelets) ([5]; Test Example 7, ES cells and differentiated cells, 1.5 to 50 μM, 8 days)","concentration dependency of inhibition of GPIbα shedding ([5]; Test Example 7, ES cells, S-45457 1.5 to 50 μM, 8 days)"
"CC#CCOc1ccc(S(=O)(=O)CC(c2ccc(CN(CC)CC)cc2)N(O)C=O)cc1 (stereo not shown) [Compound I-1, N-[2-(4-But-2-ynyloxybenzenesulfonyl)-1-(4-diethylaminomethylphenyl)ethyl]-N-hydroxyformamide]",strong function-maintaining effect on human peripheral blood-derived platelets but not as strong as S-45457,2800,suppressed ADAM10,strong effect of maintaining a function of human peripheral blood PRP,inhibitory effect equivalent to 50 μM GM6001,inhibit ADAM17-mediated GPIbα shedding,approximately the same,150,,,
"CC#CCOc1ccc(S(=O)(=O)CC(c2ccc(CNS(C)(=O)=O)cc2)N(O)C=O)cc1 (stereo not shown) [Compound I-4, N-{4-[2-(4-But-2-ynyloxybenzenesulfonyl)-1-(formylhydroxyamino)ethyl]benzyl}methanesulfonamide]",suppresses ADAM17-mediated GPIbα (CD42b) shedding,3400,suppressed ADAM10,capable of continuously suppressing ADAM17-mediated GPIbα (CD42b) shedding even incubated for 72 hours,,,,290,inhibits ADAM17-mediated GPIbα shedding,low toxicity,inhibit ADAM17-mediated GPIbα shedding in a manner dependent on the added concentration

# Source: patent US9034922B2, “Composition for maintaining function of platelets” (THE UNIVERSITY OF TOKYO, priority 2010, dated 2015)
